For data set [1], the system named is rabbit gastric gland cells. Briefly: Action on gastric acid secretion ability (in vitro), 14C-aminopyrine uptake in gastric gland cells. The data set is classed as cell-based. The following applies: Oryctolagus cuniculus, histamine 0.3 to 1.0 μM. The method, then:
Gastric acid secretion ability (as an index of the side effect) was tested according to the methods by BergLindh and Obrink (Acta Physiol. Scand. 97:401-414, 1976) and Sack and Speney (Am. J. Physiol. 243:G313-G319, 1982).
Gastric gland cells were prepared by collagenase treatment using male rabbit (Japanese white strain, manufactured by Oriental Yeast Co.).
The test compound, ^14C-aminopyrine (1.0 nmol/mL; 0.1 μCi/nmol) and histamine (0.3 to 1.0 μM) were incubated for a given time period, and gastric gland cell pellets obtained after centrifugation and washing were lysed with 100 μL of 1N-KOH. The lysate was filled in a scintillation vial containing a scintillation cocktail (manufactured by Perkin Elmer Co.) to measure the radioactivity. The gastric acid secretion action by the test compound was calculated as EC50, and the ratio of the activity relative to IC50 of suppression of TNF-α production described in Test Example 2 (degree of dissociation A) was determined from the following equation. The larger degree of dissociation A is more preferable. The results in Table 10 represent that secretion of the gastric acid ability(EC50) was lower activity in the compound of the invention, salts thereof or prodrugs thereof as compared with the suppression effect of TNF-α production(IC50). Ex. No. in Table 10 denotes the example No.
Degree of dissociation A=EC50 of gastric acid secretion ability/IC50 of suppression of TNF-α production

In data set [2] the test system is TNF-α production in LPS-stimulated mouse mononuclear cells. Briefly: Inhibitory action of TNF-α production using mouse mononuclear cells (in vitro). The data set is classed as cell-based. The following applies: mouse mononuclear cells from peripheral blood of C3H/He mouse; LPS 5 μg/mL, 21 hours; TNF-α ELISA; read-out: IC50 (nM), suppression action of TNF-α production. As to the method:
Mouse mononuclear cells were isolated from the peripheral blood of C3H/He mouse (manufactured by Japan SLC Co., male), and were suspended in a culture medium (trade name RPMI 1640 manufactured by Gibco Co.) containing 10% bovine serum. The cells were seeded in a 96 well plate as 50,000 cells/well, the test compound was added at a desired concentration, and the plate was allowed to stand in an incubator containing 5% CO2 at .37° C. for 15 minutes. LPS was added thereafter at a final concentration of 5 μg/mL, and the plate was allowed to stand in the incubator for 21 hours.
The culture medium containing produced TNF-α was retrieved, and the amount of TNF-α was measured according to the protocol attached to mouse TNF-α ELISA kit (manufactured by R & D Systems Co.). […] The suppression action of TNF-α was expressed-by […] (nM). Ex. No. in Table 9 denotes the example No.

Data set [3] relates to TNF-α production induced by LPS. Briefly: Inhibitory action of TNF-α production (in vivo) induced by LPS using mouse. The method, then: C3H/He mouse (manufactured by Japan SLC Co., male) was used as a test animal. A desired concentration of the test sample was suspended in 0.5% methyl cellulose solution. The weight of the mouse was measured, and the test compound solution was orally administered at a dosage of 10 mL/kg while only 0.5% methyl cellulose was administered to the reference group. One group contained 5 to 7 mice. LPS was dissolved in physiological saline, and 10 μg was intraperitoneally administered to each mouse. The test compound was administered first, then LPS was administered 60 minutes thereafter. After 90 minutes, the blood was sampled from the large abdominal vein with the heparin, and a plasma was obtained by centrifugation. The content of TNF-α in the plasma was measured according to the protocol attached to TNF-α ELISA kit (manufactured by R & D System Co.). […] The suppression action of TNF-α production was represented by ED50 (mg/kg). Ex. No. in Table 11 denotes the example No.

The next data set deals with T1, PDE4.
T1 construct: The PDE4 enzyme was purified from U937 cells that are the cells derived from lymphoma
Briefly: Inhibitory action of PDE4 enzyme activity (PDE4 purified from U937 cells). The data set is classed as biochemical. The conditions noted are these: PDE4 fraction purified from U937 cells; [3H]-cAMP substrate; 30° C., 10 minutes. As to the method: (1) Purification of PDE4 from U937 Cells
The PDE4 enzyme was purified from U937 cells that are the cells derived from lymphoma. U937 cells were suspended in buffer solution A (20 mM Tris-HCl(pH 6.5), 1 mM MgCl2, 0.1 mM EGTA, 3 mM 2-mercaptoethanol) containing protease. inhibitor cocktail (manufactured by Sigma Co.), and a soluble fraction was obtained by centrifugation after ultrasonic disintegration (100,000 G, 30 minutes, 4° C.). […] Each fraction was tested for the cAMP metabolized PDE activity to identify the fractions containing PDE4 enzyme.
(2) Measurement of Inhibitory Activity of PDE4 Enzyme Activity
A desired concentration of the test compound was allowed to react in a reaction mixture (100 μL; 40 mM Tris-HCl (pH 7.4), 5 MM MgCl2, 4 mM 2-mercaptoethanol, […] cAMP, 0.83 μCi [^3H]-cAMP and PDE4 fraction) at 30° C. for 10 minutes. The enzyme reaction was stopped by adding 25 μL of trichloroacetic acid to the reaction mixture. The reaction solution was charged on a neutral alumina column equilibrated with 0.1 M of 2-[[tris(hydroxylmethyl)methyl]-amino]-1-ethanesulfonic acid (TES) buffer (pH 8.0) and, after washing the column with a sufficient amount of 0.1 M TES buffer solution, the column was eluted with 2N NaOH. A 500 μL aliquot of the eluate containing [^3H]-5′AMP product was filled in a scintillation vial containing the scintillation cocktail (5 ml, manufactured by Perkin Elmer Co.) to measure radioactivity. […] The inhibitory action of PDE4 enzyme activity was expressed by IC50 (nM). Ex. No. in Table 8 denotes the example No.

In another data set the test system is Marshall ferret. Description: Vomiting action using ferret. The data set is classed as in vivo. The following applies: oral, observed for more than 6 hours. As to the method:
Marshall ferret (male, weight 1 to 1.5 kg, manufactured by Charles River Laboratories Japan, Inc.) was used. A desired concentration of the test compound was suspended in 0.5% methyl cellulose solution. The weight of a ferret was measured, and the solution of the test compound was orally administered at a dosage of 1 to 8 ml/kg. Only 0.5% methyl cellulose solution was administered to the reference group. One group contained 4 animals.

For another data set, the system named is C3H/He mouse. Description: Gastric emptying test of mouse (in vivo). The following applies: oral, test meal 60 minutes after compound. The method, then:
C3H/He mouse (manufactured by Japan SLC Co., male) fasted for 21 to 24 hours but allowed free access to water, was used as an experimental animal. A desired concentration of the test sample was suspended in 0.5% methyl cellulose solution. The weight of the mouse was measured, and the test compound solution was orally administered at a dosage of 10 mL/kg while only 0.5% methyl cellulose solution was administered to the reference group. One group contained 5 mice. A 1.5% methyl cellulose solution containing 0.05% phenol, red was used as a test meal solution. The test compound was administered, and 0.2 ml of the test meal was orally administered at 60 minutes thereafter. […] A 10% trichloroacetic acid solution (0.5 mL) was added to 5 mL of the supernatant, which was further centrifuged to remove proteins. A solution prepared by adding 125 μL of 2 N NaOH to the supernatant (1 mL) obtained by centrifugation was measured with a spectrophotometer (550 nm), and inhibition of transfer from the stomach to the small intestine was expressed by IC50 (mg/kg).

The mark [4] stands for this setting: C3H/He mouse, orally administered 60 minutes before LPS 10 μg intraperitoneally, plasma TNF-α 90 minutes after LPS, read-out: ED50 (mg/kg), suppression action of TNF-α production.
Setting [5] is: mouse, oral, LPS 60 minutes after compound, plasma TNF-α after 90 minutes, read-out: suppression of TNF-α production ED50.

We go through 15 compounds from patent US20060293343A1, “Pyrimidine derivatives” (Asahi Kasei Pharma Corporation, priority 2005, published 2006).

Each structure is given as a SMILES string. Where two headings read alike, the source gives them in different places.

In turn, `CCc1nc(-c2cccs2)nc(Nc2ccc(C(=O)O)cc2)c1CC` [Example 83] returned a concentration giving a half-maximal response (EC50) in data set [1] of 169 nM. In addition, the IC50 in data set [2] amounted to 46 nM. The ED50 in data set [3] (setting [4]) came out at 22 mg/kg.
With `C=CCc1c(C)nc(-c2ccsc2)nc1Nc1ccc(C(=O)O)cc1` [Example 11], the IC50 in data set [2] came out at 790 nM; in the data set with PDE4, 1170 nM. In addition, the ED50 in data set [3] (setting [4]) is 26 mg/kg.
For `CCc1c(C)nc(-c2ccsc2)nc1Nc1ccc(C(=O)O)cc1` [Example 18], in that order: 202 nM, 1680 nM and 37 mg/kg.
Consider `CCc1nc(-c2ccsc2)nc(Nc2ccc(C(=O)O)cc2)c1CC` [Example 57], for which the response in data set [1] was half-maximal at 460 nM (EC50). Also, the IC50 in data set [2] was determined as 44 nM. The ED50 in data set [3] (setting [4]) amounted to 24 mg/kg.
Compound `CCc1c(C)nc(-c2ccc(Br)s2)nc1Nc1ccc(CC(=O)O)cc1` [Example 148] displayed an EC50 in data set [1] of 10100 nM. In the data set on Marshall ferret (dosage of 100 mg/kg), the “incidence of vomiting by the ferret” value is listed as “no incidence of vomiting”. Further, the IC50 in data set [2] was determined as 676 nM. For the same compound, in the data set with C3H/He mouse, the “gastric emptying test IC50 (inhibition of transfer from the stomach to the small intestine)” value amounted to 85 mg/kg. For the same compound, the ED50 in data set [3] (setting [4]) and in data set [3] (setting [5]) was 12 mg/kg in each case.
On to `CCCc1c(CC)nc(-c2ccsc2)nc1Nc1ccc(C(=O)O)cc1` [Example 15], for which the IC50 in data set [2] was found to be 55 nM; in the data set with PDE4 it was 490 nM. For the same compound, the ED50 in data set [3] (setting [4]) stood at 13 mg/kg.
`CCc1c(C)nc(-c2ccc(SC)s2)nc1Nc1ccc(CC(=O)O)cc1` [Example 78]: a half-maximal effect in data set [1] (EC50) was put at 38400 nM. For the same compound, the IC50 in data set [2] was 171 nM.
`CCc1nc(-c2ccsc2)nc(Nc2ccc(CC(=O)O)cc2)c1CC` [Example 58] returned an EC50 in data set [1] of 1310 nM. The IC50 in data set [2] turned out to be 695 nM. The ED50 in data set [3] (setting [4]) is 8 mg/kg.
On to `C=CCc1c(CC)nc(-c2ccsc2)nc1Nc1ccc2cc(C(=O)O)ccc2c1` [Example 17], for which a half-maximal effect in data set [1] (EC50) was put at 1690 nM. Further, the “incidence of vomiting by the ferret” value in the data set on Marshall ferret (dosage of 50 mg/kg) is reported as “no incidence of vomiting”. Also, the IC50 in data set [2] came out at 24 nM; in the data set with PDE4, 9 nM. In addition, the “gastric emptying test IC50 (inhibition of transfer from the stomach to the small intestine)” value with C3H/He mouse came to 14 mg/kg. Further, the ED50 in data set [3] (setting [4]) and in data set [3] (setting [5]) was 3 mg/kg throughout.
Take `CCc1c(C)nc(-c2cccs2)nc1Nc1ccc(CC(=O)O)cc1` [Example 6]: the IC50 came to 4930 nM in data set [2] and 2940 nM in the data set with PDE4.
As for `CCc1nc(-c2cccs2)nc(Nc2ccc(CC(=O)O)cc2)c1CC` [Example 84], the midpoint of the response in data set [1], the EC50, lay at 1660 nM. For the same compound, the IC50 in data set [2] came to 533 nM. Further, the ED50 in data set [3] (setting [4]) worked out at 17 mg/kg.
On to `CCc1c(C)nc(-c2ccsc2)nc1Nc1ccc2cc(C(=O)O)ccc2c1` [Example 20], for which the IC50 in data set [2] was determined as 289 nM; in the data set on PDE4 it was 191 nM.
On to `CCc1nc(-c2ccco2)nc(Nc2ccc3cc(C(=O)O)ccc3c2)c1CC` [Example 188], for which the IC50 in data set [2] came to 46 nM; with PDE4, 59 nM.
For `CCc1c(C)nc(-c2cccs2)nc1Nc1ccc2cc(C(=O)O)ccc2c1` [Example 7], in that order: 267 nM and 409 nM.
As for `CCc1nc(-c2ccsc2)nc(Nc2ccc3cc(C(=O)O)ccc3c2)c1CC` [Example 59], it took 227 nM to reach a half-maximal effect in data set [1] (EC50). Besides, the IC50 amounted to 69 nM in data set [2] and 41 nM in the data set with PDE4. Also, the ED50 in data set [3] (setting [4]) came to 6 mg/kg.
